Experimental data published in patent US20220127297A1, “Novel Antibacterial 3"-Derivatives Of 4,6-Disubstituted 2,5-Dideoxystreptamine Aminoglycoside Antibiotics” (AGILeBiotics B.V., priority 2018, published 2022).
In brackets after ≈: the same amount, converted by molar mass. Where two headings read alike, the source gives them in different places.

Legend:
[1] = test system: clinical isolates of multidrug-resistant Klebsiella pneumoniae (and ATCC43816); experiment: MIC determination at Fidelta, clinical isolates; assay type: cell-based; details: Klebsiella pneumoniae
Source text: (§1) 3.4.2 MIC Determination at Fidelta (Croatia)
(§2) Tested reference compounds. Amikacin sulfate (Cat. No. 01693, Chem-Impex), Gentamicin sulfate (Cat. No. G4918, Sigma Aldrich), Ceftazidime Pentahydrate (Cat. No. 1098130, USP), Meropenem (Cat. No. 1392454, USP), Tobramycin (Cat. No. 1667508, USP).
(§3) Microbial strains. Klebsiella pneumoniae KP-1919 (abdomen), Klebsiella pneumoniae KP-1935 (urine), Klebsiella pneumoniae KP-1936 (abscess), Klebsiella pneumoniae KP-1937 (blood), Klebsiella pneumoniae KP-1942 (urine), Klebsiella pneumoniae KP-1944 (blood), Klebsiella pneumoniae KP-2027 (tracheal aspirate), Klebsiella pneumoniae KP-2029 (urine), Klebsiella pneumoniae KP-2030 (trachea), Klebsiella pneumoniae KP-2031 (skin), Klebsiella pneumoniae KP-2032 (urine), Klebsiella pneumoniae KP-2033 (urine), Klebsiella pneumoniae KP-2034 (urine), Klebsiella pneumoniae KP-2035 (urine), Klebsiella pneumoniae KP-2036 (urine), Klebsiella pneumoniae KP-2037 (urine), Klebsiella pneumoniae ATCC 43816, Pseudomonas aeruginosa PA-1948 (wound), Pseudomonas aeruginosa PA-1949 (urine), Pseudomonas aeruginosa PA-1950 (sputum), Pseudomonas aeruginosa PA-1952 (wound), Pseudomonas aeruginosa PA-1953 (urine), Pseudomonas aeruginosa PA-1954 (sputum), Pseudomonas aeruginosa PA-1967 (blood), Pseudomonas aeruginosa ATCC27853, Acinetobacter baumannii AB-1931 (urine), Acinetobacter baumannii AB-1932 (urine), Acinetobacter baumannii AB-2017 (bronchial aspirate), Acinetobacter baumannii AB-2018 (skin), Acinetobacter baumannii AB-2019 (bronchial aspirate), Acinetobacter baumannii AB-1964 (blood), Acinetobacter baumannii AB-2025 (skin), Acinetobacter baumannii AB-2026 (skin), Acinetobacter baumannii ATCC17978, methicillin-resistant Staphylococcus aureus MRSA-1995 (liquor), methicillin-resistant Staphylococcus aureus MRSA-1998 (wound), methicillin-resistant Staphylococcus aureus MRSA-1999 (skin), methicillin-resistant Staphylococcus aureus MRSA-2003 (wound), vancomycin-resistant Enterococcus faecium VRE-2005 (urine), vancomycin-resistant Enterococcus faecium VRE-2006 (urine), vancomycin-resistant Enterococcus faecium VRE-2007 (urine), vancomycin-resistant Enterococcus faecium VRE-2008 (urine), vancomycin-resistant Enterococcus faecium VRE-2009 (urine), vancomycin-resistant Enterococcus faecium VRE-2010 (urine), vancomycin-resistant Enterococcus faecium VRE-2011 (rectum), vancomycin-resistant Enterococcus faecium VRE-2012 (rectum), vancomycin-resistant Enterococcus faecium VRE-2013 (rectum).
(§4) Culture media and equipment. BBL™ Mueller Hinton Broth (REF 275730, Lot. 7009699, Becton Dickinson); Mueller Hinton Agar 2 (Ref. No. 97580-500G-F, Lot. No. BCBV4646, Sigma); Cellstar, 96-well plates, U-bottom (Cat. No. 650180, Lot. No. E14123EB, Greiner Bio-one); 96-well deep well plate, 1 mL (Cat. No. 278606, Nunc); Incubator (Binder); Laminar flow (Thermo Scientific); BioPhotometer (Eppendorf); DEN-1B (McFarland Densitometer, Biosan); McFarland standards (polymer microparticle suspension, Biosan).
(§5) Compound preparation. For testing, 5 mg/mL DMSO solutions of the test compounds and reference antibiotics were used. Out of these DMSO solutions, 43.5 μL was transferred to 1656.5 μL of MH media in a deep well plate. Out of these working solutions 100 μL was transferred to wells in the third column of 96-well plates. Plates are previously filled with 50 μL of MH media in all wells except for the wells in the third column. After compound and antibiotic addition, 50 μL was transferred from the third to the fourth column, then from the fourth to the fifth and so on. In this manner, the compounds and antibiotics were plated in 96-well plate in serial two-fold dilutions giving a final concentration range of 64-0.125 μg/mL.
(§6) Inoculum preparation. Designations used for clinical isolates were from Fidelta strain collection bank. Microorganisms used were all revived from skim milk storage at −70° C. by plating them on MH agar plates.

[2] = test system: clinical isolates of methicillin-resistant Staphylococcus aureus (MRSA); experiment: MIC determination at Fidelta, clinical isolates; assay type: cell-based
Source text: as §1, §2, §3, §4, §5, §6

[3] = test system: clinical isolates of Vancomycin-resistant Enterococcus faecium (VRE); experiment: MIC determination at Fidelta, clinical isolates; assay type: cell-based
Source text: as §1, §2, §3, §4, §5, §6

[4] = test system: Klebsiella pneumoniae ATCC 43816; experiment: Murine neutropenic thigh model of infection; assay type: in vivo, male CD-1 mice
Description: 4.1 Murine Neutropenic Thigh Model of Infection (Kiebsiella Pneumoniae ATCC 43816)
A comparator antibiotic (meropenem; Cat. No. 1392454, USP) was used during both studies.
During the first study ABX5006 and ABX5020 were tested at a dose of 64 mg/kg (group 5 for ABX5006, group 8 for ABX5020), 16 mg/kg (group 4 for ABX5006, group 7 for ABX5020) and of 4 mg/kg (group 3 for ABX5006, group 6 for ABX5020).
During a second study ABX5026 and ABX5039 were tested at a dose of 4 mg/kg (group 5 for ABX5026, group 8 for ABX5039), 1 mg/kg (group 4 for ABX5026, group 7 for ABX5039) and of 0.25 mg/kg (group 3 for ABX5026, group 6 for ABX5039).
Animals were dosed subcutaneously (10 mL/kg) twice with 8 h interval. […] A CFU count below limit of detection (LOD=1.0×10^2 CFU/mL) was substituted with the value 0 in order to perform statistical analysis.
Inoculum preparation for intramuscular infection. The strain was streaked out onto MH agar.

[5] = ATCC43816, KP-1919, Abdomen/VIM, ESBL
[6] = ATCC43816, KP-1935, Urine/ESBL, NDM
[7] = ATCC43816, KP-1936, Abscess/NDM
[8] = ATCC43816, KP-1937, Blood/VIM, ESBL
[9] = ATCC43816, KP-1942, Urine (catheter)/VIM
[10] = ATCC43816, KP-2027, Tracheal aspirate/ESBL, OXA-48, ColR
[11] = ATCC43816, KP-2029, Urine/ESBL, OXA-48
[12] = ATCC43816, KP-2030, Trachea/ESBL, OXA-48
[13] = ATCC43816, KP-2031, Skin/ESBL, OXA-48
[14] = ATCC43816, KP-2032, Urine/ESBL, OXA-48
[15] = ATCC43816, KP-2033, Urine/OXA-A8
[16] = ATCC43816, KP-2034, Urine/ESBL, OXA-48
[17] = ATCC43816, KP-2035, Urine/ESBL, OXA-48
[18] = ATCC43816, KP-2037, Urine/ESBL, OXA-48

CC(C)(O/N=C(\C(=O)N[C@@H]1C(=O)N2C(C(=O)[O-])=C(C[n+]3ccccc3)CS[C@H]12)c1csc(N)n1)C(=O)O [Ceftazidime, reference compound]
MIC90 ([1]; ATCC43816, K. pneumoniae ATCC43816 strain, read-out: MIC 90): < 0.125 µg/mL | MIC90 [1, 5]: 64 µg/mL (≈ 117 µM) | MIC90 [1, 6]: > 64 µg/mL | MIC90 [1, 7]: > 64 µg/mL | MIC90 [1, 8]: > 64 µg/mL | MIC90 [1, 9]: > 64 µg/mL | MIC90 ([1]; ATCC43816, KP-1944, Blood/NDM): > 64 µg/mL | MIC90 [1, 10]: > 64 µg/mL | MIC90 [1, 11]: > 64 µg/mL | MIC90 [1, 12]: > 64 µg/mL | MIC90 [1, 13]: > 64 µg/mL | MIC90 [1, 14]: > 64 µg/mL | MIC90 [1, 15]: > 64 µg/mL | MIC90 [1, 16]: > 64 µg/mL | MIC90 [1, 17]: > 64 µg/mL | MIC90 ([1]; ATCC43816, KP-2036, Urine/ESBL): > 64 µg/mL | MIC90 [1, 18]: > 64 µg/mL | MIC90 ([2]; MRSA-1995, Liquor): > 64 µg/mL | MIC90 ([2]; MRSA-1998, Wound): > 64 µg/mL | MIC90 ([2]; MRSA-1999, Skin): > 64 µg/mL | MIC90 ([2]; MRSA-2003, Wound): > 64 µg/mL | MIC90 ([3]; VRE-2005, Urine): > 64 µg/mL | MIC90 ([3]; VRE-2006, Urine): > 64 µg/mL | MIC90 ([3]; VRE-2007, Urine): > 64 µg/mL | MIC90 ([3]; VRE-2008, Urine): > 64 µg/mL | MIC90 ([3]; VRE-2009, Urine): > 64 µg/mL | MIC90 ([3]; VRE-2010, Urine): > 64 µg/mL | MIC90 ([3]; VRE-2011, Rectum): > 64 µg/mL | MIC90 ([3]; VRE-2012, Rectum): > 64 µg/mL | MIC90 ([3]; VRE-2013, Rectum): > 64 µg/mL

C[C@@H](O)[C@H]1C(=O)N2C(C(=O)O)=C(S[C@@H]3CN[C@H](C(=O)N(C)C)C3)[C@H](C)[C@H]12 [Meropenem, meropenem, reference compound]
Change from vehicle group ([4]; Log CFU/g thigh, dose 100 mg/kg SC BID): −4.56 | Avg. Log CFU/g thigh ([4]; dose 100 mg/kg SC BID, 24 h post infection): 4.95 Log CFU/g | Change from vehicle group ([4]; dose 100 mg/kg, SC, BID, Avg. Log CFU/g thigh vs vehicle): 8.17 | Avg. Log CFU/g ([4]; dose 100 mg/kg, SC, BID, thigh, 24 hours post infection): 1.61 Log CFU/g | survival rate ([4]; first study, vehicle group 50% mortality): 100% | MIC90 ([1]; ATCC43816): < 0.125 µg/mL | MIC90 [1, 5]: 4 µg/mL (≈ 10.4 µM) | MIC90 [1, 6]: 32 µg/mL (≈ 83.4 µM) | MIC90 [1, 7]: > 64 µg/mL | MIC90 [1, 8]: 32 µg/mL (≈ 83.4 µM) | MIC90 [1, 9]: 64 µg/mL (≈ 167 µM) | MIC90 ([1]; ATCC43816, KP-1944, Blood/NDM): > 64 µg/mL | MIC90 [1, 10]: 4 µg/mL (≈ 10.4 µM) | MIC90 [1, 11]: 4 µg/mL (≈ 10.4 µM) | MIC90 [1, 12]: 4 µg/mL (≈ 10.4 µM) | MIC90 [1, 13]: 2 µg/mL (≈ 5.22 µM) | MIC90 [1, 14]: 2 µg/mL (≈ 5.22 µM) | MIC90 [1, 15]: 16 µg/mL (≈ 41.7 µM) | MIC90 [1, 16]: 16 µg/mL (≈ 41.7 µM) | MIC90 [1, 17]: 2 µg/mL (≈ 5.22 µM) | MIC90 ([1]; ATCC43816, KP-2036, Urine/ESBL): 16 µg/mL (≈ 41.7 µM) | MIC90 [1, 18]: 2 µg/mL (≈ 5.22 µM) | MIC90 ([2]; MRSA-1995, Liquor): 64 µg/mL (≈ 167 µM) | MIC90 ([2]; MRSA-1998, Wound): 8 µg/mL (≈ 20.9 µM) | MIC90 ([2]; MRSA-1999, Skin): 64 µg/mL (≈ 167 µM) | MIC90 ([2]; MRSA-2003, Wound): 8 µg/mL (≈ 20.9 µM) | MIC90 ([3]; VRE-2005, Urine): > 64 µg/mL | MIC90 ([3]; VRE-2006, Urine): > 64 µg/mL | MIC90 ([3]; VRE-2007, Urine): > 64 µg/mL | MIC90 ([3]; VRE-2008, Urine): > 64 µg/mL | MIC90 ([3]; VRE-2009, Urine): > 64 µg/mL | MIC90 ([3]; VRE-2010, Urine): > 64 µg/mL | MIC90 ([3]; VRE-2011, Rectum): > 64 µg/mL | MIC90 ([3]; VRE-2012, Rectum): > 64 µg/mL | MIC90 ([3]; VRE-2013, Rectum): > 64 µg/mL
